# Measurements as given in US20060008891A1, “Cathepsin G-related peptides as modulators of formylpeptide receptors (FPR)” (The Government of USA as repersented by the Secretary, …, priority 2004, published 2006).
# “Also recorded” adds a separate entry of the source.
# Assays:
# [1] = target: T1, FPR (Homo sapiens, UniProt P21462); assay: 3[H]-fMLF binding competition on monocytes and ETFR cells; conditions: 3 nM 3[H]-fMLF
# T1 construct: expressed in transfected cells; host or cells: Rat basophilic leukemia (RBL) cells, stably transfected (ETFR cells); gift of H. Ali and R. Snyderman, Duke University
# T1 sequence (P21462 1-350): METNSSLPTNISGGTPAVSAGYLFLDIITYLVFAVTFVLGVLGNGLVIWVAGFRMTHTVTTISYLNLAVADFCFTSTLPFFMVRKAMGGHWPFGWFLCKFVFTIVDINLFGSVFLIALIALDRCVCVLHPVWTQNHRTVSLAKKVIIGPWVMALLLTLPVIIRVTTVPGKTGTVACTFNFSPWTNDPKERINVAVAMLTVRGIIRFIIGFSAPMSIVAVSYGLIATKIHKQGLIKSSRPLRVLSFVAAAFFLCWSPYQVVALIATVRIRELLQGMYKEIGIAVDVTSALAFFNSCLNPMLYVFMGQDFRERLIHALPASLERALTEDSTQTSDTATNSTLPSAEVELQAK
# Excerpt: The cells were then filtered onto Whatman paper discs, which were air-dried and measured for […].
# [2] = target: T1, FPR; assay: Chemotaxis of HEK293 cells transfected with FPR; type: cell-based; conditions: chemotaxis index
# Method: Human PBMC were isolated from leukopacks obtained through the courtesy of Transfusion Medicine Department, National Institutes of Health Clinical Center (Bethesda, Md.) by Ficoll-Hypaque density gradient centrifugation. Monocytes were purified from human PBMC by Percoll gradient to yield>90% pure preparations. […] H. Ali and R. Snyderman, Duke University (Durham, N.C.) and maintained in the presence of 0.8 mg/ml geneticin (G418, Life Technologies, Rockville, Md.) in DMEM supplemented with 10% FCS. B. Chemotaxis assay Migration of phagocytes and ETFR cells was assessed using a 48-well microchemotaxis chamber (Neuroprobe, Cabin John, Md.) as previously described (Hu et al. (2001) J Leukoc Biol 70 15512). […] After incubation at 37° C. in humidified air with 5% CO2 (60 min for neutrophils, 90 min for monocytes, 4.5 h for ETFR cells), the filter was removed and stained, and the cells migrating across the filter were counted with light microscopy. […]
# The chimeric receptor was stably transfected into HEK293 cells (a human embryo kidney cell line) and the chemotactic activity of CaG on the transfected cells was measured and compared to the chemotactic activity of CaG on […] cells transfected with wild type FPR, using the assay for chemotaxis described in Example IB. […]
# [3] = tested on: Akt; assay: Phosphorylation of Akt in ETFR cells (Western blot); type: cell-based, rat
# Method: ETFR cells were plated in Petri dishes and cultured in DMEM at 37° C. in humidified 5% CO2 atmosphere for 48 h. After further culture in serum-free DMEM overnight, the cells were treated with stimulants for indicated time periods. The reaction was stopped by adding 1 ml ice-cold PBS, and the cells were lysed in 1×SDS lysis buffer (62.5 mM Tris-HCl, 2% w/v SDS, 10% glycerol, 50 mM DTT, pH 6.8) and harvested into tubes for sonication. Proteins (50 μg for each sample) were resolved by SDS-PAGE and transferred onto nitrocellulose membranes (Bio-Rad, Hercules, Calif.). The membranes were blocked for 2 h at room temperature in 3% non-fat milk prepared in Tris-buffered saline-T (10 mM Tris-HCl, pH 7.5, 150 mM NaCl, 0.1% Tween 20) and probed with anti-p-ERK1/2, p-p38 MAPK, or p-Akt (1:1000) at room temperature for 1-2 h or at 4° C. overnight. The membranes were then washed and incubated with horseradish peroxidase-conjugated secondary antibodies diluted in Tris-buffered saline-T for 1 h at room temperature. The immune complexes on the membranes were visualized using ECL reagents. Total ERK1/2, p38 MAPK, and Akt were visualized by stripping the same membrane and probing with antibodies against total ERK1/2, p38 MAPK, and Akt.
# [4] = tested on: neutrophils; assay: Calcium flux (Fura-2), neutrophils; type: cell-based, human
# [5] = tested on: PKCδ; assay: PKCδ translocation in ETFR cells; type: cell-based, rat; conditions: 100 nM fMLF, 10 μg/ml CaG or PMA 500 nM, 37° C. 10 min
# Method: ETFR cells were seeded on coverslips and cultured overnight in DMEM containing 1% FCS at 37° C. After further culture in FCS-free DMEM for 3 h, cells were treated with stimulants for indicated time periods at 37° C. and were then fixed in 4% paraformaldehyde for 5 min at room temperature. […] The rabbit anti-PKCα/β, δ, and ξ, antibodies (1:1000 in DPBS) were applied separately for 1 h at room temperature. After three rinses with DPBS, the cells were stained with FITC-labeled goat anti-rabbit secondary antibody (PharMingen, 1:1000 in DPBS) for 1 h at room temperature. The coverslips were mounted with an anti-fade, water-based mounting medium with Propidium Iodide (PI) (Vector Lab, Burlingamem, Calif.) and analyzed under a laser scanning confocal fluorescence microscope (Zeiss LSM510 NLO Meta, Jena, Germany).
# [6] = tested on: parental RBL cells; assay: Chemotaxis assay, parental RBL cells; type: cell-based, rat; conditions: parental RBL cells without FPR
# Method: Human PBMC were isolated from leukopacks obtained through the courtesy of Transfusion Medicine Department, National Institutes of Health Clinical Center (Bethesda, Md.) by Ficoll-Hypaque density gradient centrifugation. Monocytes were purified from human PBMC by Percoll gradient to yield>90% pure preparations. […] H. Ali and R. Snyderman, Duke University (Durham, N.C.) and maintained in the presence of 0.8 mg/ml geneticin (G418, Life Technologies, Rockville, Md.) in DMEM supplemented with 10% FCS. B. Chemotaxis assay Migration of phagocytes and ETFR cells was assessed using a 48-well microchemotaxis chamber (Neuroprobe, Cabin John, Md.) as previously described (Hu et al. (2001) J Leukoc Biol 70 15512). Briefly, different concentrations of stimulants were placed in the wells of the lower compartment of the chamber, and 50 μl cells (1.5×10^6 cells/ml for monocyte and neutrophil, 1×10^6 ETFR cells/ml) were added to the wells of the upper compartment. The lower and upper compartments were separated by either a 5-μm (for monocyte) or a 10-μm pore size, collagen-coated (for ETFR cells) polycarbonate filter (Osmonics, Livermore, Calif.). After incubation at 37° C. in humidified air with 5% CO2 (60 min for neutrophils, 90 min for monocytes, 4.5 h for ETFR cells), the filter was removed and stained, and the cells migrating across the filter were counted with light microscopy. […]
# [7] = tested on: neutrophils; assay: Chemotaxis assay, neutrophils; type: cell-based, human; conditions: neutrophils
# Method: Human PBMC were isolated from leukopacks obtained through the courtesy of Transfusion Medicine Department, National Institutes of Health Clinical Center (Bethesda, Md.) by Ficoll-Hypaque density gradient centrifugation. Monocytes were purified from human PBMC by Percoll gradient to yield>90% pure preparations. […] H. Ali and R. Snyderman, Duke University (Durham, N.C.) and maintained in the presence of 0.8 mg/ml geneticin (G418, Life Technologies, Rockville, Md.) in DMEM supplemented with 10% FCS. B. Chemotaxis assay Migration of phagocytes and ETFR cells was assessed using a 48-well microchemotaxis chamber (Neuroprobe, Cabin John, Md.) as previously described (Hu et al. (2001) J Leukoc Biol 70 15512). Briefly, different concentrations of stimulants were placed in the wells of the lower compartment of the chamber, and 50 μl cells (1.5×10^6 cells/ml for monocyte and neutrophil, 1×10^6 ETFR cells/ml) were added to the wells of the upper compartment. The lower and upper compartments were separated by either a 5-μm (for monocyte) or a 10-μm pore size, collagen-coated (for ETFR cells) polycarbonate filter (Osmonics, Livermore, Calif.). After incubation at 37° C. in humidified air with 5% CO2 (60 min for neutrophils, 90 min for monocytes, 4.5 h for ETFR cells), the filter was removed and stained, and the cells migrating across the filter were counted with light microscopy. The results are presented as the mean number of cells (±SD) in three high power fields (HPFs). For analysis of cross-desensitization, cells were pretreated with indicated reagents for 1 h at 37° C. After thorough washing with cold medium (RPMI 1640, 1% BSA), the cells were resuspended and assayed. To measure the effect of various signaling inhibitors, unless otherwise indicated, the cells were pre-incubated at 37° C. for 60 min with the inhibitors, and were then added to the upper wells of the chemotaxis chamber.
# [8] = tested on: ERK1/2; assay: Phosphorylation of ERK1/2 in parental RBL cells; type: cell-based, rat
# [9] = tested on: PKC isozymes; assay: PKC translocation in parental RBL cells; type: cell-based, rat; conditions: 100 nM fMLF, 10 μg/ml CaG or PMA 500 nM, 37° C. 10 min
substance,measurement,setting,value
"CaG: Cathepsin G, serine protease purified from neutrophil granules, purchased from Athens Research & Technology","IC50, displacement of 3[H]-fMLF binding",[1],2.5 µg/mL
same,chemotactic activity on FPR-transfected HEK293 cells,[2],chemotacic for FPR-transfected HEK 293 cells
same,time to activation of Akt,[3],1 to 5 min
same,Ca2+ flux,[4]; CaG 10 μg/ml,failed to induce significant Ca^2+ flux
same,attenuation of Ca2+ response to fMLF,"[4]; CaG 10 μg/ml, 0.1 nM fMLF",attenuated cell response induced by low concentrations of fMLF; also recorded: significantly attenuated cell response to 0.1 nM fMLF
same,Ca2+ mobilizing activity,[4]; concentrations up to 20 μg/ml (800 nM),lacked significant Ca^2+ mobilizing activity
same,translocation of PKCδ,[5],did not induce translocation of PKCδ
same,migration of parental RBL cells,[6],Neither CaG nor fMLF induced migration of parental RBL cells
same,concentration range potently chemotactic,[7],4 to 400 nM
same,phosphorylation of ERK1/2 in parental RBL cells,[8],did not show any increased phosphorylation of ERK1/2
same,PKC translocation in parental RBL cells,[9],Neither CaG nor fMLF stimulated PKC translocation in parental RBL cells
